Results reported in US20230233566A1, “INHIBITION OF BMI1 ELIMINATES CANCER STEM CELLS AND ACTIVATES ANTITUMOR IMMUNITY” (The Regents of the University of California, priority 2020, published 2023).

Legend:
cytosolic dsDNA = assay: Cytosolic dsDNA staining (PicoGreen/MitoTracker); assay type: cell-based, human; conditions: SCC23 and SCC1 cells
Protocol: Following the treatment, SCC23 and SCC1 cells were incubated with culture media containing PicoGreen (dsDNA stain, 200-fold dilution, Thermo Fisher Scientific, Cat #P11496) and MitoTracker ([…], 100 nM, Thermo Fisher Scientific, Cat #M7512). One hour after incubation, cells were fixed with 4% paraformaldehyde for 10 min. Cells were then washed twice with PBS and stained with DAPI (Sigma-Aldrich, Cat #D9542) and mounted with SlowFade Antifade Reagents (Thermo Fisher Scientific, Cat #536937). Staining was imaged and assessed using a Leica SP5X laser scanning confocal microscope.

HNSCC tumor cells = assay: Anti-active caspase-3 (Ac-casp3) immunostaining of apoptosis in HNSCC; assay type: in vivo, mouse; conditions: 4NQO-induced HNSCC, treated 4 weeks
Protocol: The immunocomplexes were detected and visualized using related secondary antibodies conjugated with Cy2 or Cy3 (Jackson ImmunoResearch Laboratories). […] At least three sections from each HNSCC lesions were immunostained and analyzed. Tumor cells (>150) and CD8+, Ac-casp3+ and Tomato^+ cells of these tumor cell areas were counted manually in each section. The percentage of CD8+, Ac-casp3^+ and Tomato^+ cells were calculated by dividing those cells with tumor cells and averaged from the sections.

pH2A.X = assay: DNA damage in SCC23 and SCC1 cells (pH2A.X, alkaline comet assay); assay type: cell-based, human
Protocol: (§1) Cells were lysed using the radioimmunoprecipitation assay (RIPA) buffer (Sigma-Aldrich, Cat #R0278) added with a cocktail of protease inhibitors (Thermo Fisher Scientific, Cat ##78430) and phosphatase inhibitors (Sigma-Aldrich, Cat #4906845001). Protein extracts were resolved on a 10% or 15% SDS polyacrylamide gel and then transferred to a polyvinylidene difluoride membrane. Membranes were blocked with 5% milk for 1 h and incubated with primary antibodies overnight at 4° C. Primary antibodies used in this study were: anti-phospho-STING (Ser366) (1:1,000; Cell Signaling Technology, Cat #19781), anti-STING (1:1,000; Cell Signaling Technology, Cat #13647), anti-phospho-TBK1 (Ser172) (1:1,000; Cell Signaling Technology, Cat #5483), anti-TBK1 (1:1,000; Cell Signaling Technology, Cat #3504), anti-phospho-IRF3 (Ser396) (1:1,000; Cell Signaling Technology, Cat #29047), anti-IRF3 (1:1,000; Cell Signaling Technology, Cat #4302), anti-BMI1 (1:1,000; Cell Signaling Technology, Cat #6964), anti-Ubiquityl-Histone H2A (Lys119) (1:1000, Cell Signaling Technology, Cat #8240), anti-phospho Histone H2A.X (Ser139) (1:1000; Cell Signaling Technology, Cat #9718), and anti-GAPDH (1:1000; Cell Signaling Technology, Cat #5174), anti-Histone H3 (1:2,000; Cell Signaling Technology, Cat #4499). The signals were detected using the Clarity Western ECL kit (Bio-Rad, Cat #1705060). To measure the protein levels of CCL5, CXCL9, CXCL10 and CXCL11, cells were treated with PTC209 or shBMI1 knockdown for 48 hr. After treatment, supernatants were collected, and the protein levels of CCL5, CXCL9, CXCL10 and CXCL11 were measured with ELISA (R&D Systems, Cat #DRN00B, DCX900, DIP100, DCX110) according to the manufacturer's instructions.
Single cell gel electrophoresis comet assays were performed using the SCGE assay Kit (Enzo Life Sciences, Cat #ADI-900-166). Following the treatment, cells were mixed with low melting point agarose at a volume ratio of 1:50, and 100 μl of aliquots were loaded onto pre-warmed slides. Slides were incubated in pre-chilled lysis solution for 1 h and then in pre-chilled alkaline solution for 1 h. Electrophoresis was run at 22 V in the TBE buffer for 30 min. Comets were stained with CYGREEN dye for 30 min and imaged. 50 individual cells at least per sample were evaluated in duplicates by the CASP Version 1.2.2 analysis tool.

SOX2+ CSCs = assay type: in vivo, mouse; conditions: only strongly stained cells counted
BMI-1 = conditions: HEK293T cell line; cited from earlier work
[1] = tested on: CSCs isolated from human colorectal cancers; conditions: cited from earlier work
CD8+ T cells = assay: Flow cytometry of T cells in lymph nodes, blood and spleen; assay type: in vivo, mouse; conditions: blood and spleen of 4NQO-induced HNSCC mice
Description: PBMCs were isolated from blood using Ficoll-Paque Plus density gradient centrifugation (GE Healthcare Life Sciences, Cat #17-1440). Cervical lymph nodes and spleens were collected and processed into single-cell suspensions through mechanical separation. The isolated or dissociated cells were stained with the specific surface marker antibodies, anti-CD3-FITC (eBioscience, Cat #11-0031), anti-CD4-APC (eBioscience, Cat #17-0041), and anti-CD8-PerCP-Cy5.5 (eBioscience, Cat #45-0081) in PBS with FBS for 30 min at 4° C. Intracellular staining of IFNγ was performed as follows: cells were stimulated with PMA and ionomysin cocktail (eBioscience, Cat #00-4970) for 5 h at 37° C. with 5% CO2. Cells were washed and stained with surface marker antibodies, then fixed and permeabilized with a fixation/permeabilization kit (BD Bioscience, Cat #554715) and intracellularly stained with anti-IFNγ-PE (eBioscience, Cat #12-7311). For proper compensation of flow cytometry channels, single-stain samples were utilized, and for gating, isotype controls were applied. The stained cells were analyzed on the BD FACS flow cytometer, and data analyzed using Flowjo software.

[2] = tested on: cGAS-STING-IRF3 signaling; assay: Western blot of phosphorylated STING, TBK1, IRF3; assay type: cell-based, human
Protocol: as §1

COc1cc(Br)c(Nc2nc(-c3c(C)nc4ncccn34)cs2)c(Br)c1 [PTC209, N-(2,6-dibromo-4-methoxyphenyl)-4-(2-methylimidazo[1,2-a]pyrimidin-3-yl)thiazol-2-amine]
accumulation of cytosolic dsDNA (cytosolic dsDNA): induced the accumulation of cytosolic dsDNA
apoptosis in Tomato+ BMI1+ CSCs (HNSCC tumor cells): able to induce apoptosis in Tomato^+ CSCs
Olive tail moment (pH2A.X; alkaline comet assay): significantly increased the Olive tail moment in SCC23 and SCC1 cells
pH2A.X (pH2A.X; immunostaining and Western blot): increased pH2A.X in SCC23 and SCC1 cells
number of SOX2+ cells (SOX2+ CSCs): significantly reduced
IC50 (BMI-1): 500 nM
colorectal tumor growth and frequency of CSCs ([1]; mouse xenograft models): inhibited colorectal tumor growth and reduced the frequency of CSCs in mouse xenograft models
self-renewal of CSCs ([1]; xenografted nude mouse model): abolish the self-renewal of CSCs isolated from human colorectal cancers
percentage of CD8+ T cells and IFNγ-produced CD8+ T cells (CD8+ T cells): no significant alteration in the percentage of CD8+ T cells and IFNγ-produced CD8+ T cells
phosphorylation of STING (S366), TBK1 (S172) and IRF3 (S396) ([2]; SCC1 cells): induction of phosphorylation of STING (S366), TBK1 (S172) and IRF3 (S396) in SCC1 cells
phosphorylation of STING (S366), TBK1 (S172) and IRF3 (S396) ([2]; SCC23 cells): induction of phosphorylation of STING (S366), TBK1 (S172) and IRF3 (S396) in SCC23 cells
